{
  "source": "patent US20090028842A1",
  "about": "“Dekkera/Brettanomyces Cytosine Deaminases And Their Use” (ZGene A/S, priority 2005, published 2009)",
  "key": {"D. bruxellensis": {"tested_on": "D. bruxellensis", "assay": "Growth of D. bruxellensis on plates containing 5-FC", "format": "cell-based, Dekkera bruxellensis", "conditions": "after 5 days", "description": "(§1) The yeast strains used in this work are: Dekkera bruxellensis (Y872, CBS 1943), D. bruxellensis (Y879, CBS 2499), D. bruxellensis (CBS 4480, CBS 4481), D. anomala (CBS 76, CBS 77, CBS 1938, CBS 1947), Brettanomyces nanus (CBS 1945), B. nanus (CBS 1955, CBS 1956), M. reukauffii (CBS 2266), B. custersianus (CBS 4805), B. naardensis (CBS 6042), S. kluyveri Y057 (NRRL Y-12651), and S. cerevisiae Y051 (NRRL Y-12632). Yeast strains were grown at 25° in YPD medium (1% yeast extract, 2% bacto peptone, 2% glucose) or in defined minimal (SD) medium (1% succinic acid, 0.6% NaOH, 2% glucose, 0.67% yeast nitrogen base without amino acids from Difco). When indicated, (NH4)2SO4 was replaced with 0.1% cytosine as the sole nitrogen source giving N-minimal medium. The growth rate was determined in liquid medium by following the optical density at 600 nm. The E. coli strain TOP10 (Invitrogen) was used for plasmid amplification. Bacteria were grown at […] in Luria-Bertani medium supplemented with 100 mg/l of ampicillin for selection. The E. coli BL21-DE3 (Invitrogen) strain was used for heterologous protein expression.\n(§2) The majority of yeast can utilize cytosine as sole source of nitrogen by using CD to cleave cytosine to ammonia (a source of nitrogen) and uracil. To test for the ability of Dekkera yeast for growth on cytosine, Y872 was spotted on N-minimal media containing 0.1% cytosine. […]"}, "S. cerevisiae": {"tested_on": "S. cerevisiae", "assay": "Growth of S. cerevisiae on plates containing 5-FC", "format": "cell-based, Saccharomyces cerevisiae", "description": "as §1, §2"}, "[1]": {"tested_on": "Dekkera/Brettanomyces strains", "assay": "Growth of various Dekkera/Brettanomyces strains on plates containing 5-FC", "format": "cell-based", "conditions": "all tested Dekkera and Brettanomyces species, after 5 days", "description": "as §1\n(§3) In FIG. 2 it can be seen that all the tested Dekkera/Brettanomyces strains are particularly susceptible to 5-FC, as growth is inhibited at 0.1 or at least at 0.36 μM 5.FC. For comparison, S. cerevisiae (FIG. 1) and M. reukauffii (FIG. 2) strains are included."}, "Metschnikowia reukauffii": {"tested_on": "Metschnikowia reukauffii", "assay": "Growth of control strain Metschnikowia reukauffii on plates containing 5-FC", "format": "cell-based", "conditions": "0.1 or 0.36 μM 5-FC, 5 days", "description": "as §1, §3"}, "U87MG": {"tested_on": "U87MG", "assay": "XTT cell proliferation assay, untransduced U87MG", "format": "cell-based", "conditions": "Homo sapiens, U-87 MG, 96-120 hours of drug exposure", "description": "(§4) Cancer cells were purchased from the American Type Culture Collection. Cells were cultured in RPMI, E-MEM or D-MEM with 10% (v/v) Australian originated foetal calf serum and 1 ml/l of gentamicin. Cells were grown at 37° C. in a humidified incubator with a gas phase of 5% CO2. The cells were transduced with the retrovirus containing medium mixed with 5 μg/ml of Polybrene, incubated for 48 hours and then cultured continuously for 3 weeks in the presence of 300-400 μg/ml Genetecin® (Life Technologies Inc.).\n(§5) Cells were plated at densities range of 1.500-3.500 cells/well in 96-well plates coated with poly-L-lysine (Sigma). 5-FC was added after 24 hours of incubation. Each experiment was performed in four replicates. Cell survival was assayed after 96-120 hours of drug exposure by XTT cell proliferation kit (Roche). The data was corrected for background media-only absorbance where after the 50% cell killing drug concentration (IC50 value) was calculated using SigmaPlot® (SPSS Science, Dyrberg Trading, Denmark)."}, "MCF7": {"tested_on": "MCF7", "assay": "XTT cell proliferation assay, untransduced MCF7", "format": "cell-based", "conditions": "Homo sapiens; untransduced MCF7, 96-120 hours of drug exposure", "description": "as §4, §5"}, "PANC-1": {"tested_on": "PANC-1", "assay": "XTT cell proliferation assay, untransduced PANC-1", "format": "cell-based", "conditions": "Homo sapiens; untransduced PANC-1, 96-120 hours of drug exposure", "description": "as §4, §5"}, "HT-29": {"tested_on": "HT-29", "assay": "XTT cell proliferation assay, untransduced HT-29", "format": "cell-based", "conditions": "Homo sapiens; untransduced HT-29, 96-120 hours of drug exposure", "description": "as §4, §5"}, "[2]": {"tested_on": "MCF7 cell line transduced with pLCXSN", "assay": "XTT cell proliferation assay, MCF7 transduced with empty vector pLCXSN", "format": "cell-based", "conditions": "Homo sapiens", "text": "(§6) ORFs were amplified with Accuzyme DNA polymerase (Bioline) using primers with designed flanking restriction enzyme sites and containing Kozak sequence at 5′ end. D. bruxellensis CD constructs were cloned into the retrovirus vector pLCXSN. The vector is based on pLXSN (Clontech) to which the CMV promoter has been cloned into the polylinker site to form pLCXSN. The constructs obtained was named DbCDCvir (PZG917). pLCXSN alone was used as a control. The plasmids were purified using the Qiagen plasmid kit (QIAGEN) and DNA sequences were verified by DNA sequence determination. HE 293 T packaging cells (ATCC CRL-11268) were cultured at 37° C. in OPTIMEM 1 medium (Life Technologies, Inc.) The constructed retrovirus vectors were transfected into the packaging cells using LipofectAMINE PLUS (Life Technologies, Inc.) according to the protocol provided by the supplier. The medium from the transfected cells was collected 48 hours after transfection, filtered through a 0.45 μm filter, pelleted by ultracentrifugation (50.000×g, 90 minutes at 4° C.) and dissolved in D-MEM.\nCancer cells were purchased from the American Type Culture Collection. Cells were cultured in RPMI, E-MEM or D-MEM with 10% (v/v) Australian originated foetal calf serum and 1 ml/l of gentamicin. Cells were grown at 37° C. in a humidified incubator with a gas phase of 5% CO2. […]"}, "[3]": {"tested_on": "MCF7 cell line transduced with Db CD gene", "assay": "XTT cell proliferation assay, MCF7 transduced with D. bruxellensis cytosine deaminase", "format": "cell-based, human", "text": "as §6, §4, §5"}, "[4]": {"tested_on": "Dekkera/Brettanomyces yeasts", "assay": "Sensitivity of Dekkera/Brettanomyces yeasts to G418", "format": "cell-based", "conditions": "addition of 200 μg/ml; almost all yeasts tested", "text": "There are no suitable auxotrophic markers or efficient transformation system to work with these yeasts. […] Using degenerative primers described in this study it was not possible to amplify CD genes from D. anomala, B. nanus, B. naardenensis and B. custersianus probably due to presence of introns in these genes. Therefore we designed a selection system based on Dekkera bruxellensis CD1 promoter and G418 resistance marker coding for 3′aminoglycoside-phosphotransferase. G418 is a ribosomal inhibitor in many eukaryotic cells but many yeast species are not sensitive to G418. However, almost all Dekkera/Brettanomyces yeasts tested were sensitive to addition of 200 μg/ml. Since G418 cannot be used in medium with high salt concentration (like SD medium) use of CD1 promoter which had activity in YPD medium (low salt) will permit expression of G418 gene and ultimately lead to resistance to G418 and enable direct selection of yeast colonies containing this gene. Cloning strategy was as described: pYES2 vector was cut with AgeI/HindIII restriction enzymes and fragment of app. 440 bp containing GAL promoter was removed. Promoter of 1075 bp from Y872 CD1 gene was cloned into AgeI/HindIII site resulting in pDbCD1p plasmid. The ORF from G418 gene (Acc. nr. S78175) was cloned under control of CD1 promoter into BamHI/EcoRI site. […]"}, "[5]": {"assay": "CD activities with purified his-tagged proteins", "format": "biochemical", "conditions": "purified his-tagged protein, 37° C., cytosine 500 μM, triplicates, mean with standard deviation", "description": "For recombinant protein expression, E. coli cells were grown to a density of A600 nm=0.5-0.6 in LB medium supplemented with 100 μg/ml ampicillin, and the expression was induced with 10 μM IPTG for 8 h at 25° C. The cells were harvested by centrifugation, and the pellet was resuspended in 25 ml ice-cold binding buffer A […] (50 mM sodium phosphate pH 8.0; 300 mM NaCl; 10% glycerol; 25 mM imidazole) containing protease inhibitor cocktail (Complete™-EDTA free from Roche Diagnostics). The cells were homogenized using a French Press, subjected to centrifugation at 12,000×g for 30 minutes (4° C.), filtered through a […] Whatman glass microfiber filter and a […] cellulose acetate filter, and loaded onto a 5 ml Ni^2+-NTA column (Qiagen). […]\nBacteria or cell lines were grown as described, harvested and stored at −80° C. until activity testing. […] Cytosine deaminase activities were determined spectrophotometrically by monitoring the absorbance decrease at 286 nm (Δε286=−0.68 mM^−1 cm^−1) resulting from the deamination of cytosine to uracil. […]\nTo characterize the substrate specificities of yeast CDs, purified proteins were measured at 37° C. and fixed cytosine concentration and assays was performed as described in Example 1 (Enzyme assays) (Table 3)."}, "[6]": {"format": "physicochemical", "description": "Purified and his-tagged CD from D. bruxellensis and S. cerevisiae CD were assayed after different periods of storage at 50° C. and 37° C. (FIGS. 8a and 8b). Indeed, D. bruxellensis CD was extremely stable at 50° C. when compared to S. cerevisiae CD which lost all activity after only 4 minutes. Half life for D. bruxellensis CD at 50° C. was app. 3 hours (FIG. 8a). […] It should be observed that the temperature stability of the proteins without his-tags could be different."}},
  "data": [
    {"molecule": "Nc1nc(=O)[nH]cc1F", "note": "[5-FC, 5-fluorocytosine]", "values": [
      {"measurement": "5-FC concentration at which growth inhibition was observed", "setting": "D. bruxellensis", "result": 0.1, "unit": "µM"},
      {"measurement": "5-FC concentration at which there was no visible growth", "setting": "D. bruxellensis", "result": 0.36, "unit": "µM"},
      {"measurement": "Growth on plates with 5-FC", "setting": "S. cerevisiae; S. cerevisiae control strain, 0.1 or 0.36 μM 5-FC, 5 days", "result": "not inhibited"},
      {"measurement": "5-FC concentration at which growth was first inhibited", "setting": "S. cerevisiae; S. cerevisiae, plates, after 5 days", "result": 1, "unit": "µM"},
      {"measurement": "5-FC concentration at which growth inhibition was observed", "setting": "[1]", "result": "≤ 0.36", "unit": "µM"},
      {"measurement": "Growth on plates with 5-FC", "setting": "Metschnikowia reukauffii", "result": "not inhibited"},
      {"measurement": "IC50", "setting": "U87MG", "result": "2000 to 5000", "unit": "µM"},
      {"measurement": "IC50", "setting": "MCF7", "result": "2000 to 5000", "unit": "µM"},
      {"measurement": "IC50", "setting": "PANC-1", "result": "2000 to 5000", "unit": "µM"},
      {"measurement": "IC50", "setting": "HT-29", "result": "2000 to 5000", "unit": "µM"},
      {"measurement": "IC50", "setting": "[2]", "result": 9290, "unit": "µM"},
      {"measurement": "IC50", "setting": "[3]; Homo sapiens, MCF7, MCF7 transduced with D. bruxellensis cytosine deaminase", "result": 2400, "unit": "µM"},
      {"measurement": "IC50", "setting": "[3]; MCF7 transduced with D. bruxellensis cytosine deaminase", "result": 2440, "unit": "µM"},
      {"measurement": "sensitivity increase towards 5-FC", "setting": "[3]; MCF7 with Db CD versus empty vector", "result": 4, "unit": "fold"}
    ]},
    {"molecule": "CN[C@@H]1[C@@H](O)[C@@H](O[C@@H]2[C@@H](O)[C@H](O[C@H]3O[C@H]([C@@H](C)O)[C@@H](O)[C@H](O)[C@H]3N)[C@@H](N)C[C@H]2N)OC[C@]1(C)O", "note": "[G418]", "values": [
      {"measurement": "Sensitivity to G418", "setting": "[4]", "result": "sensitive"}
    ]},
    {"molecule": "Db CD (PZG893): cytosine deaminase from Dekkera bruxellensis (SEQ ID NO 2), recombinant his-tagged protein (protein, listed as Dekkera bruxellensis, His tag) MTFDDKLGMQVAFEEAKKGFEEGGVPIGACLLTEEGKVIGRGHNMRVQKSSATLHGETSCFENAGRLPASVYKKCTLYTTLSPCSMCSGAALLFKIPRIVLGENETFVGAEKWLESNGVEVVNVHNKECKNLMDRFIKEKPEVWNEDIGE", "values": [
      {"measurement": "CD activity, Cytosine", "setting": "[5]", "result": "176.5 ± 5.3", "unit": "U/mg/min"},
      {"measurement": "Half life", "setting": "[6]", "result": "~3", "unit": "h"},
      {"measurement": "Stability compared to S. cerevisiae CD", "setting": "[6]", "result": "more stable"}
    ]}
  ]
}
